The kinase profiling compilation of Christmann-Franck et al. (2016)

What was measured:
Experiment in all cases: radiometric filter-binding kinase assay, Kinase HotSpot
Conditions in all cases: compound 0.5 µM; ATP 10 µM
ADRBK1 (human) = ADRBK1 (human) (UniProt P25098)
AKT1 (human) = AKT1 (human) (UniProt P31749)
CDC42BPA (human) = CDC42BPA (human) (UniProt Q5VT25)
CDK2 CCNE1 (human) = CDK2 CCNE1 (human) (UniProt P24941+P24864)
CDK3 CCNE1 (human) = CDK3 CCNE1 (human) (UniProt Q00526+P24864)
CDK7 CCNH MNAT1 (human) = CDK7 CCNH MNAT1 (human) (UniProt P50613+P51948+P51946)
CHEK1 (human) = CHEK1 (human) (UniProt O14757)
CSNK1G2 (human) = CSNK1G2 (human) (UniProt P78368)
EPHA2 (human) = EPHA2 (human) (UniProt P29317)
EPHA4 (human) = EPHA4 (human) (UniProt P54764)
EPHA8 (human) = EPHA8 (human) (UniProt P29322)
FGFR1 (human) = FGFR1 (human) (UniProt P11362)
FYN (human) = FYN (human) (UniProt P06241)
GSK3A (human) = GSK3A (human) (UniProt P49840)
HIPK1 (human) = HIPK1 (human) (UniProt Q86Z02)
HIPK2 (human) = HIPK2 (human) (UniProt Q9H2X6)
ITK (human) = ITK (human) (UniProt Q08881)
LTK (human) = LTK (human) (UniProt P29376)
MAP2K1 (human) = MAP2K1 (human) (UniProt Q02750)
MAP4K4 (human) = MAP4K4 (human) (UniProt O95819)
MST4 (human) = MST4 (human) (UniProt Q9P289)
MYLK (human) = MYLK (human) (UniProt Q15746)
NUAK2 (human) = NUAK2 (human) (UniProt Q9H093)
PAK7 (human) = PAK7 (human) (UniProt Q9P286)
PKN2 (human) = PKN2 (human) (UniProt Q16513)
PRKACA (human) = PRKACA (human) (UniProt P17612)
PRKCD (human) = PRKCD (human) (UniProt Q05655)
PRKD1 (human) = PRKD1 (human) (UniProt Q15139)
PRKD2 (human) = PRKD2 (human) (UniProt Q9BZL6)
PRKD3 (human) = PRKD3 (human) (UniProt O94806)
PTK6 (human) = PTK6 (human) (UniProt Q13882)
RIPK2 (human) = RIPK2 (human) (UniProt O43353)
RPS6KB1 (human) = RPS6KB1 (human) (UniProt P23443)
SGK3 (human) = SGK3 (human) (UniProt Q96BR1)
STK10 (human) = STK10 (human) (UniProt O94804)
STK11 (human) = STK11 (human) (UniProt Q15831)
STK16 (human) = STK16 (human) (UniProt O75716)
STK17A (human) = STK17A (human) (UniProt Q9UEE5)
STK25 (human) = STK25 (human) (UniProt O00506)
TAOK2 (human) = TAOK2 (human) (UniProt Q9UL54)
TAOK3 (human) = TAOK3 (human) (UniProt Q9H2K8)
YES1 (human) = YES1 (human) (UniProt P07947)
Chain of YES1 (human) (P07947 whole entry, looked up): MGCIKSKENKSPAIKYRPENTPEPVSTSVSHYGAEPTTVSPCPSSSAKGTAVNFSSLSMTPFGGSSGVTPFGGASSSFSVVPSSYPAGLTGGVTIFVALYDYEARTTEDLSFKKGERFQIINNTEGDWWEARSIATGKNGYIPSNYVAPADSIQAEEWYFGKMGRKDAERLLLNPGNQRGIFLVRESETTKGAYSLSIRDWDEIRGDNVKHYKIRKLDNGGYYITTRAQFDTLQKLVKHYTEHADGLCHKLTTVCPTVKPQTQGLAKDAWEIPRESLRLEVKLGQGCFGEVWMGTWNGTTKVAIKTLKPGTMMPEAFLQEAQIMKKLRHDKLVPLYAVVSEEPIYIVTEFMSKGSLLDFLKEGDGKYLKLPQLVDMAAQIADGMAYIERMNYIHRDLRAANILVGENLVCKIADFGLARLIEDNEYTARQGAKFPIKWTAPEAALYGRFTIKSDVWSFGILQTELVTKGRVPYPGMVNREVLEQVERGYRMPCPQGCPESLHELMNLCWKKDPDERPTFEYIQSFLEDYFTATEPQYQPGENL

Chain of STK25 (human) (O00506 whole entry, looked up): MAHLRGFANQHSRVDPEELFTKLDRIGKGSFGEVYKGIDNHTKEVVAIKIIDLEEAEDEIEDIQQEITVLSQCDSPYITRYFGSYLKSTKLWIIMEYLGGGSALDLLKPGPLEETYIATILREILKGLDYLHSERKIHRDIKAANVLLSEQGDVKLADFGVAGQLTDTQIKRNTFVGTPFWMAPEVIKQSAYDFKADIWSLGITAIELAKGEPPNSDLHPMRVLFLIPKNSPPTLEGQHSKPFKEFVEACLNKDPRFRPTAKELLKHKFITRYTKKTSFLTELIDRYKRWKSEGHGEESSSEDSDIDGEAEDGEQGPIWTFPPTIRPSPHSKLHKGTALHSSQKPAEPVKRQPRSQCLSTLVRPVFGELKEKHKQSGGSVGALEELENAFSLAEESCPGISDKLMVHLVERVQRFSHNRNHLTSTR
Chain of RIPK2 (human) (O43353 whole entry, looked up): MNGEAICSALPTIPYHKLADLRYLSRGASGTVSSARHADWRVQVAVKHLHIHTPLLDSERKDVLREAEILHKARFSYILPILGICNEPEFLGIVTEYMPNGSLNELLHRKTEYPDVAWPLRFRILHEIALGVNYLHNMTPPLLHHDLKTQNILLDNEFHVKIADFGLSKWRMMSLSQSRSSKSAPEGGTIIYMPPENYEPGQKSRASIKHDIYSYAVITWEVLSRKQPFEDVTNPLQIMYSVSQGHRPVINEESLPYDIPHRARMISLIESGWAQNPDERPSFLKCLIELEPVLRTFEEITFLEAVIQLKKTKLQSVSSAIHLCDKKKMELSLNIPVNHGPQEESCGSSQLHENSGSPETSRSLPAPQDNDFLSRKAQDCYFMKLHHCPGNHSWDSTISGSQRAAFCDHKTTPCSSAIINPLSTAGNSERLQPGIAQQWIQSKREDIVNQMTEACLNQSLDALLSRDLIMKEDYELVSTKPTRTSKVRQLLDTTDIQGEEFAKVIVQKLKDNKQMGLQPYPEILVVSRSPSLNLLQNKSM
Chain of PRKD3 (human) (O94806 whole entry, looked up): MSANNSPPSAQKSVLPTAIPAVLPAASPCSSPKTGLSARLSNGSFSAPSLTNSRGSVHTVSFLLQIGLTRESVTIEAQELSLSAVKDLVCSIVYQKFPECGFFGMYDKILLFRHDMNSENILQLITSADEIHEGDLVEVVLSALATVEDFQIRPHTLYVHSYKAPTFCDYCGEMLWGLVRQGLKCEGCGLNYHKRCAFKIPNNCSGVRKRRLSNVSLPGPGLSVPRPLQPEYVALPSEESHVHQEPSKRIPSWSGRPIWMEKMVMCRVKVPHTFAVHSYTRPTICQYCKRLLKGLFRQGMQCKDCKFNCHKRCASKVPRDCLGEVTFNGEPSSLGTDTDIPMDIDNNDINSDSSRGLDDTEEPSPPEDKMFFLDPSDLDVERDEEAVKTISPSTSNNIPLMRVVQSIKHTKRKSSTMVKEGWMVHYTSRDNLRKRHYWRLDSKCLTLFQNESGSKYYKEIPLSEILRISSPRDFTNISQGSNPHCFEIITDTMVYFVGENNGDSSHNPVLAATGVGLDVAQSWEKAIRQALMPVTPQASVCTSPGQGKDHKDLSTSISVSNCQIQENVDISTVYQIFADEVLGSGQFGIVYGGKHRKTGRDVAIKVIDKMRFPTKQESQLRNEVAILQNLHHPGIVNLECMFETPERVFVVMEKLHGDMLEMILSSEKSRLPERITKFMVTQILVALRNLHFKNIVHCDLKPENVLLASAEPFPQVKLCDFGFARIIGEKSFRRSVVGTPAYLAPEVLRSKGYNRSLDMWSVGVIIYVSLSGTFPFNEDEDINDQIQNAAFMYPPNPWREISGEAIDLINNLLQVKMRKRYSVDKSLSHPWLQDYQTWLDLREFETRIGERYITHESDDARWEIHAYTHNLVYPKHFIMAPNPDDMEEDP
Chain of MST4 (human) (Q9P289 whole entry, looked up): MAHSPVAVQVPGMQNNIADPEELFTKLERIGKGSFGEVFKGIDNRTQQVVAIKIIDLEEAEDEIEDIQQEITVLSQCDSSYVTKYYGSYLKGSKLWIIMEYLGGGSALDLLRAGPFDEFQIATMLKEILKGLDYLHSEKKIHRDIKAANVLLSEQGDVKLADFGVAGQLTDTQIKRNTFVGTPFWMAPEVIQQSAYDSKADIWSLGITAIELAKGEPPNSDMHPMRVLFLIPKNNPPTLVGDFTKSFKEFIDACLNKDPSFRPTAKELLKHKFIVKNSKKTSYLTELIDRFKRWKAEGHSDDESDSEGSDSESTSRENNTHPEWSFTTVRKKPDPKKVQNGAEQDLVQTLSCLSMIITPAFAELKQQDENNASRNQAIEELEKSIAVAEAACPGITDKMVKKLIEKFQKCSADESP
Chain of ADRBK1 (human) (P25098 whole entry, looked up): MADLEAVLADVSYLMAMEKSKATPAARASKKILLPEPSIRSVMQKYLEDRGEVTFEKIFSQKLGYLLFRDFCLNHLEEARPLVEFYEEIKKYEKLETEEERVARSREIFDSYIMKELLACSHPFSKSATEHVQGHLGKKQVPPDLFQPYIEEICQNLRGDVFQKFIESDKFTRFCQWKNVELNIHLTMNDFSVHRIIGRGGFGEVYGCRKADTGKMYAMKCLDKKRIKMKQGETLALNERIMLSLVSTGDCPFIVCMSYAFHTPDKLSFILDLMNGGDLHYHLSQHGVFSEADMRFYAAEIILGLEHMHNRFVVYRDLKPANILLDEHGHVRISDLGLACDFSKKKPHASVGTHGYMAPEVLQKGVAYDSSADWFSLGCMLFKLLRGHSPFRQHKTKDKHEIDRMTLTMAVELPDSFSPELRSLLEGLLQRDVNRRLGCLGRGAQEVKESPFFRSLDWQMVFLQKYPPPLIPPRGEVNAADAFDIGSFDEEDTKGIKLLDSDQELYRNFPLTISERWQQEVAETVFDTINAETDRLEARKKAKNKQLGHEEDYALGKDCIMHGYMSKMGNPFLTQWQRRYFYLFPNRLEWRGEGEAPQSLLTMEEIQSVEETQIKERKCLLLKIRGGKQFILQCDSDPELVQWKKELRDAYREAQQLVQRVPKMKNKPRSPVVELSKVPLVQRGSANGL
Chain of HIPK1 (human) (Q86Z02 whole entry, looked up): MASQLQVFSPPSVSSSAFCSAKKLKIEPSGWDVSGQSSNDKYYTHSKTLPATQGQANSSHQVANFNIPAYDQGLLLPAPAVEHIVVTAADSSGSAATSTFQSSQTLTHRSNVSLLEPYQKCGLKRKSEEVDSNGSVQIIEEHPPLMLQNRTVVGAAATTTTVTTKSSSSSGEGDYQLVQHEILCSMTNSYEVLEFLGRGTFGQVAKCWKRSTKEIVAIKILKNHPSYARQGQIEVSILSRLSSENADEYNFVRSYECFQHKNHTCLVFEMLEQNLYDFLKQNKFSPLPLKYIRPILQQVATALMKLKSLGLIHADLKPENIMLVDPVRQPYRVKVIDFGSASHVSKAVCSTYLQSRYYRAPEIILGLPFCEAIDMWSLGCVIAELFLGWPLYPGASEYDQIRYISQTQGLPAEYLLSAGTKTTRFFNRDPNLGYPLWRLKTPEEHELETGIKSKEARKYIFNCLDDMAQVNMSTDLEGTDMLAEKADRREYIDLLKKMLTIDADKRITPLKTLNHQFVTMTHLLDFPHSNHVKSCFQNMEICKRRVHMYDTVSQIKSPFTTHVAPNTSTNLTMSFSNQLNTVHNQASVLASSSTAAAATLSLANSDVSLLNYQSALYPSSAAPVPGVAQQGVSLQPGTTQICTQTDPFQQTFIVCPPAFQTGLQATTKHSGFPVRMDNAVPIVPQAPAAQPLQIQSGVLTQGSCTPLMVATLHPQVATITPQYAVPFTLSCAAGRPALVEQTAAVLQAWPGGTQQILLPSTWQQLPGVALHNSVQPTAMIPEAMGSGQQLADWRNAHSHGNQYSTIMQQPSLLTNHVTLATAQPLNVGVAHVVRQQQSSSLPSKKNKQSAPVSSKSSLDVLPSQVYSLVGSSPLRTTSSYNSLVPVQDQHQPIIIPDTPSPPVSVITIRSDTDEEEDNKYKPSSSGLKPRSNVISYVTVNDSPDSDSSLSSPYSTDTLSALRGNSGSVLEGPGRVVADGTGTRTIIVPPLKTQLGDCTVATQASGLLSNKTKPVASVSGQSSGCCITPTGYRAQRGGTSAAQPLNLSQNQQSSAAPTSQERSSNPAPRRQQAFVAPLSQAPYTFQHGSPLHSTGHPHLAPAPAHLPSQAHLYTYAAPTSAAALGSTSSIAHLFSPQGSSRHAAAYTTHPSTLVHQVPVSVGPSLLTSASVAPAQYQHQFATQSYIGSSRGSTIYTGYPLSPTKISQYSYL
Chain of STK16 (human) (O75716 whole entry, looked up): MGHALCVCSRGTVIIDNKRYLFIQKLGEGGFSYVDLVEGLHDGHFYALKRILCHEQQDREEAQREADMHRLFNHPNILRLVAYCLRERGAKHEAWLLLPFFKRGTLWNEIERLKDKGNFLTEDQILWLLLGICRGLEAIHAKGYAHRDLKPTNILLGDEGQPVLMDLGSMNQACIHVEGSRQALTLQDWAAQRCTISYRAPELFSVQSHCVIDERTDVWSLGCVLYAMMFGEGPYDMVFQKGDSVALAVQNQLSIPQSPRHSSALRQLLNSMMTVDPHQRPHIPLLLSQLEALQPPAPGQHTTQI

Which results are given for `COc1ccc(OC)c2c(=S)c3ccccc3[nH]c12`?
residual activity (ADRBK1 (human)): 92.5%; residual activity (AKT1 (human)): 89.7%; residual activity (CDC42BPA (human)): 82.7%; residual activity (CDK2 CCNE1 (human)): 77.9%; residual activity (CDK3 CCNE1 (human)): 87.7%; residual activity (CDK7 CCNH MNAT1 (human)): 91.7%; residual activity (CHEK1 (human)): 92.7%; residual activity (CSNK1G2 (human)): 103%; residual activity (EPHA2 (human)): 100%; residual activity (EPHA4 (human)): 88.8%; residual activity (EPHA8 (human)): 93.8%; residual activity (FGFR1 (human)): 89.6%; residual activity (FYN (human)): 101%; residual activity (GSK3A (human)): 104%; residual activity (HIPK1 (human)): 107%; residual activity (HIPK2 (human)): 98.3%; residual activity (ITK (human)): 101%; residual activity (LTK (human)): 84.5%; residual activity (MAP2K1 (human)): 91.7%; residual activity (MAP4K4 (human)): 101%; residual activity (MST4 (human)): 90.8%; residual activity (MYLK (human)): 89.8%; residual activity (NUAK2 (human)): 98.9%; residual activity (PAK7 (human)): 82.9%; residual activity (PKN2 (human)): 105%; residual activity (PRKACA (human)): 97.5%; residual activity (PRKCD (human)): 103%; residual activity (PRKD1 (human)): 99.8%; residual activity (PRKD2 (human)): 88.1%; residual activity (PRKD3 (human)): 94.1%; residual activity (PTK6 (human)): 84%; residual activity (RIPK2 (human)): 108%; residual activity (RPS6KB1 (human)): 99.4%; residual activity (SGK3 (human)): 90.7%; residual activity (STK10 (human)): 93.6%; residual activity (STK11 (human)): 84.4%; residual activity (STK16 (human)): 90%; residual activity (STK17A (human)): 90.3%; residual activity (STK25 (human)): 96.2%; residual activity (TAOK2 (human)): 100%; residual activity (TAOK3 (human)): 92.7%; residual activity (YES1 (human)): 89.2%

How did the residual activity (ADRBK1 (human)) turn out when `Cn1sc(=O)n(Cc2ccccc2)c1=O` was run?
The residual activity was 96.7%.

And the residual activity (AKT1 (human))?
The residual activity was 101%.

What about the residual activity (CDC42BPA (human)) of the same compound?
Its residual activity is 94%.

And the residual activity (CDK2 CCNE1 (human))?
Its residual activity is 95.1%.

What about the residual activity (CDK3 CCNE1 (human)) of the same compound?
The residual activity was 78.1%.

What about the residual activity (CDK7 CCNH MNAT1 (human)) of the same compound?
The residual activity was 96.8%.

And the residual activity (CHEK1 (human))?
The residual activity was 103%.

What about the residual activity (CSNK1G2 (human)) of the same compound?
Its residual activity is 95%.

What about the residual activity (EPHA2 (human)) of the same compound?
Its residual activity is 96.5%.

What about the residual activity (EPHA4 (human)) of the same compound?
The residual activity was 110%.

And the residual activity (EPHA8 (human))?
Its residual activity is 94.4%.

What about the residual activity (FGFR1 (human)) of the same compound?
Its residual activity is 95.6%.

What about the residual activity (FYN (human)) of the same compound?
Its residual activity is 105%.

What about the residual activity (GSK3A (human)) of the same compound?
Its residual activity is 94.5%.

What about the residual activity (HIPK1 (human)) of the same compound?
The residual activity was 92.3%.

And the residual activity (HIPK2 (human))?
Its residual activity is 99.6%.

What about the residual activity (ITK (human)) of the same compound?
Its residual activity is 93.2%.

And the residual activity (LTK (human))?
Its residual activity is 101%.

And the residual activity (MAP2K1 (human))?
The residual activity was 83.8%.

And the residual activity (MAP4K4 (human))?
The residual activity was 97%.

What about the residual activity (MST4 (human)) of the same compound?
The residual activity was 98.1%.

And the residual activity (MYLK (human))?
The residual activity was 94.5%.

And the residual activity (NUAK2 (human))?
The residual activity was 97.7%.

And the residual activity (PAK7 (human))?
Its residual activity is 81.1%.

And the residual activity (PKN2 (human))?
The residual activity was 97.2%.

What about the residual activity (PRKACA (human)) of the same compound?
Its residual activity is 105%.

What about the residual activity (PRKCD (human)) of the same compound?
Its residual activity is 94.1%.

And the residual activity (PRKD1 (human))?
Its residual activity is 101%.

And the residual activity (PRKD2 (human))?
The residual activity was 95.1%.

What about the residual activity (PRKD3 (human)) of the same compound?
Its residual activity is 95.9%.

And the residual activity (PTK6 (human))?
The residual activity was 96.7%.

And the residual activity (RIPK2 (human))?
The residual activity was 85.4%.

And the residual activity (RPS6KB1 (human))?
Its residual activity is 98%.

What about the residual activity (SGK3 (human)) of the same compound?
Its residual activity is 102%.

And the residual activity (STK10 (human))?
Its residual activity is 98.1%.

And the residual activity (STK11 (human))?
The residual activity was 106%.

And the residual activity (STK16 (human))?
Its residual activity is 105%.

What about the residual activity (STK17A (human)) of the same compound?
The residual activity was 101%.

What about the residual activity (STK25 (human)) of the same compound?
Its residual activity is 96.2%.

What about the residual activity (TAOK2 (human)) of the same compound?
The residual activity was 91%.

What about the residual activity (TAOK3 (human)) of the same compound?
Its residual activity is 101%.

What about the residual activity (YES1 (human)) of the same compound?
The residual activity was 96.3%.

Which results are given for `O=C(Nc1cccc(Nc2cc(Nc3cccc(C(F)(F)F)c3)ncn2)c1)C1CC1`?
residual activity (ADRBK1 (human)): 97.9%; residual activity (AKT1 (human)): 102%; residual activity (CDC42BPA (human)): 77.7%; residual activity (CDK2 CCNE1 (human)): 96.7%; residual activity (CDK3 CCNE1 (human)): 94.8%; residual activity (CDK7 CCNH MNAT1 (human)): 97.6%; residual activity (CHEK1 (human)): 105%; residual activity (CSNK1G2 (human)): 99.1%; residual activity (EPHA2 (human)): 104%; residual activity (EPHA4 (human)): 96.5%; residual activity (EPHA8 (human)): 103%; residual activity (FGFR1 (human)): 103%; residual activity (FYN (human)): 100%; residual activity (GSK3A (human)): 101%; residual activity (HIPK1 (human)): 99.7%; residual activity (HIPK2 (human)): 107%; residual activity (ITK (human)): 97.2%; residual activity (LTK (human)): 96.8%; residual activity (MAP2K1 (human)): 98.9%; residual activity (MAP4K4 (human)): 102%; residual activity (MST4 (human)): 98.9%; residual activity (MYLK (human)): 99%; residual activity (NUAK2 (human)): 103%; residual activity (PAK7 (human)): 97.5%; residual activity (PKN2 (human)): 95.9%; residual activity (PRKACA (human)): 102%; residual activity (PRKCD (human)): 101%; residual activity (PRKD1 (human)): 100%; residual activity (PRKD2 (human)): 103%; residual activity (PRKD3 (human)): 96.9%; residual activity (PTK6 (human)): 98.4%; residual activity (RIPK2 (human)): 80.8%; residual activity (RPS6KB1 (human)): 98%; residual activity (SGK3 (human)): 106%; residual activity (STK10 (human)): 95.7%; residual activity (STK11 (human)): 100%; residual activity (STK16 (human)): 107%; residual activity (STK17A (human)): 99.2%; residual activity (STK25 (human)): 97.4%; residual activity (TAOK2 (human)): 103%; residual activity (TAOK3 (human)): 98.7%; residual activity (YES1 (human)): 99.6%
